Reference: US20260356851A1, “TRICYCLIC COMPOUNDS AND USES THEREOF” (HUTCHMED LIMITED, priority 2023, published 2026)

Legend:
Format in all cases: cell-based
[1] = molecular target: T1, pERK1/2 (Thr202/Tyr204), NCI-1H358 (KRAS G12C) (Homo sapiens, UniProt P01116, G12C); experiment: Assay of intracellular pERK1/2 (Thr202/Tyr204) phosphorylation in NCI-H358 cells (KRAS G12C); details: pERK1/2, 2 days, read-out: NCI-H358 (KRAS G12C) IC50
T1 construct: pERK1/2 HTRF read-out
How it was run: (§1)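 Cells (10000-12000/well) exposed to 3-fold compound dilutions for 2 days at 37 °C, then lysed; pERK1/2 (Thr202/Tyr204) measured by HTRF with d2 and cryptate antibodies, 665/615 nm ratio.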

[2] = molecular target: T2, pERK1/2 (Thr202/Tyr204), PANC-1 (KRAS G121D) (Homo sapiens, UniProt P01116, G12D); experiment: Assay of intracellular pERK1/2 (Thr202/Tyr204) phosphorylation in PANC-1 cells (KRAS G12D); details: pERK1/2, 2 days, read-out: PANC-1 (KRAS G12D) IC50
T2 construct: pERK1/2 HTRF read-out
How it was run: as §1

[3] = molecular target: T3, pERK1/2 (Thr202/Tyr204), NCI-1H441 (KRAS G12V) (Homo sapiens, UniProt P01116, G12V); experiment: Assay of intracellular pERK1/2 (Thr202/Tyr204) phosphorylation in NCI-H441 cells (KRAS G12V); details: pERK1/2, 2 days, read-out: NCI-H441 (KRAS G12V) IC50
T3 construct: pERK1/2 HTRF read-out
How it was run: as §1

T3 sequence (P01116 1-188 isoform P01116-2 G12V): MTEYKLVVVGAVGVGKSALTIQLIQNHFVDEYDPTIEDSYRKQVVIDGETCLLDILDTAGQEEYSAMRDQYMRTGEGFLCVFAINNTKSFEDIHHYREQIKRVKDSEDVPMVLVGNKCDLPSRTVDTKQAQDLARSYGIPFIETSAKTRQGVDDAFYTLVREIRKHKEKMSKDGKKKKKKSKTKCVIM
T2 sequence (P01116 1-188 isoform P01116-2 G12D): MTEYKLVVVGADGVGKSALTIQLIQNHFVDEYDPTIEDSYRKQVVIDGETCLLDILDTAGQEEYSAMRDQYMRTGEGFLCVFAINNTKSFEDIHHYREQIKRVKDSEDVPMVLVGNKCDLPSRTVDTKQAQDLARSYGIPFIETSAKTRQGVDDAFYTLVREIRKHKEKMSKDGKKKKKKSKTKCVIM
T1 sequence (P01116 1-188 isoform P01116-2 G12C): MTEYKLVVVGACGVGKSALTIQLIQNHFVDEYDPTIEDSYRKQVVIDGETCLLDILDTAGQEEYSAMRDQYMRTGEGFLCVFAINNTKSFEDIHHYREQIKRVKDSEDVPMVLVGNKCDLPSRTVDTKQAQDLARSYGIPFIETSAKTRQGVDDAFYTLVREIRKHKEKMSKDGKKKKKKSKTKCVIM

IC50 [1]	IC50 [2]	IC50 [3]	SMILES
0.2 nM	0.8 nM	0.6 nM	Cc1c(F)c(N)cc(-c2nc3c4c(nc(OC[C@@]56CCCN5C[C@@]5(CC5(F)F)C6)nc4c2F)N(C(C)c2cccnc2N)CCO3)c1C(F)(F)F (single isomer, unassigned; diastereomer 1) [Compound 238, (*)3-(1-(5-(5-amino-4-fluoro-3-methyl-2-(trifluoromethyl)phenyl)-2-(((1R or 1S,7a′S)-2,2-difluorodihydro-1′H,3′H-spiro[cyclopropane-1,2′-pyrrolizin]-7a′(5′H)-yl)methoxy)-4-fluoro-8,9-dihydro-10H-7-oxa-1,3,6,10-tetraazacyclohepta[de]naphthalen-10-yl)ethyl)pyridin-2-amine (diastereomer 1)]
> 100 nM	> 100 nM	> 100 nM	Cc1cc2cn[nH]c2cc1-c1nc2c3c(nc(OC[C@@]45CCCN4C[C@H](F)C5)nc3c1F)N(C(C)c1cccnc1N)[C@@H](C)CO2 (stereo partly drawn) [Compound 314]
0.2 nM	5 nM	0.9 nM	CC(c1cccnc1N)N1CCOc2nc(-c3cc(N)c(F)c(Cl)c3C3CC3)c(F)c3nc(OC[C@@]45CCCN4C[C@H](F)C5)nc1c23 (stereo partly drawn) [Compound 232]
91 nM	> 100 nM	> 100 nM	CC(c1cccnc1N)N1CCOc2nc(-c3cc(O)cc(Cl)c3C3CC3)c(F)c3nc(OC[C@@H]4CCCCN4C)nc1c23 (stereo partly drawn) [Compound 139]
30 nM	> 100 nM	65 nM	Cc1c(F)c(N)cc(-c2nc3c4c(nc(OC[C@@]56CCCN5C[C@H](F)C6)nc4c2F)N([C@H](C)c2cn(C)nc2N)CCO3)c1C(F)(F)F (single isomer, unassigned) [Compound 260, 4-((R or S)-1-(5-(5-amino-4-fluoro-3-methyl-2-(trifluoromethyl)phenyl)-4-fluoro-2-(((2R,7aS)-2-fluorotetrahydro-1H-pyrrolizin-7a(5H)-yl)methoxy)-8,9-dihydro-10H-7-oxa-1,3,6,10-tetraazacyclohepta[de]naphthalen-10-yl)ethyl)-1-methyl-1H-pyrazol-3-amine]
0.3 nM	0.3 nM	0.4 nM	Cc1cc2[nH]ncc2c(-c2nc3c4c(nc(OC[C@@]56CCCN5C[C@H](F)C6)nc4c2F)N(C(C)c2cccnc2N)[C@@H](C)CO3)c1C(F)(F)F (stereo partly drawn) [Compound 312]
0.3 nM	> 100 nM	0.7 nM	[2H]C1([2H])CN(C([2H])(C)c2cccnc2N)c2nc(OC[C@@]34CCCN3C[C@H](F)C4)nc3c(F)c(-c4cc(N)cc(C)c4C(F)(F)F)nc(c23)O1 (stereo partly drawn) [Compound 141]
> 1000 nM	> 1000 nM	> 1000 nM	CC(c1cccnc1N)N1CCOc2nc(-c3cc(O)cc(F)c3C3CC3)c(F)c3nc(OC[C@@H]4CCCN4C)nc1c23 (single isomer, unassigned) [Compound 34, 3-(10-((R or S)-1-(2-aminopyridin-3-yl)ethyl)-4-fluoro-2-(((S)-1-methylpyrrolidin-2-yl)methoxy)-9,10-dihydro-8H-7-oxa-1,3,6,10-tetraazacyclohepta[de]naphthalen-5-yl)-4-cyclopropyl-5-fluorophenol]
0.2 nM	6 nM	0.4 nM	Cc1c(F)c(N)cc(-c2nc3c4c(nc(OC[C@]56CCCN5C[C@@H](F)C6)nc4c2F)N(C(C)c2cccnc2N)CCO3)c1C(F)(F)F (stereo partly drawn) [Compound 163]
0.4 nM	> 100 nM	3 nM	Cc1c(F)c(N)cc(-c2nc3c4c(nc(OCC56CC(F)CN5CC(F)C6)nc4c2F)N(C(C)c2cccnc2N)CCO3)c1C(F)(F)F (single isomer, unassigned; diastereomer 2) [Compound 242, (*)3-(1-(5-(5-amino-4-fluoro-3-methyl-2-(trifluoromethyl)phenyl)-2-(((2R or 2S,6R or 6S)-2,6-difluorotetrahydro-1H-pyrrolizin-7a(5H)-yl)methoxy)-4-fluoro-8,9-dihydro-10H-7-oxa-1,3,6,10-tetraazacyclohepta[de]naphthalen-10-yl)ethyl)pyridin-2-amine (diastereomer 2)]
